Data on six molecules can be found in article PMC7238120, “Strong and Selective Inhibitory Effects of the Biflavonoid Selamariscina A against CYP2C8 and CYP2C9 Enzyme Activities in Human Liver Microsomes” (Pharmaceutics, 2020).

Structures are written as SMILES. Like-named read-outs stand apart in the source and are kept apart here.

One data set has as its target CYP2C9 (Homo sapiens, UniProt P11712). Description: Inhibition of CYP2C9-catalyzed diclofenac 4-hydroxylation in pooled human liver microsomes. The data set is classed as in vitro ADME. On the set-up: incubation mixtures containing pooled human liver microsomes (HLMs, XTreme 200, XenoTech); tissue XenoTech XTreme 200; host or cells: pooled human liver microsomes. Here is the method: The inhibitory potential of the five biflavonoids on the metabolism of nine P450 probe substrates was evaluated using previously developed methods with minor modifications. Biflavonoids were dissolved in methanol. The final concentration of methanol in the incubation mixture was 1.0% (v/v). We used these P450 probe substrates: phenacetin for CYP1A2, coumarin for CYP2A6, bupropion for CYP2B6, amodiaquine for CYP2C8, diclofenac for CYP2C9, omeprazole for CYP2C19, dextromethorphan for CYP2D6, chlorzoxazone for CYP2E1 and midazolam for CYP3A (Table 1). […] The reaction was stopped by adding 50 μL of ice-cold acetonitrile containing 7 nM trimipramine (internal standard, IS). After centrifugation at 18,000 g (5 min, 4 °C), aliquots of supernatants were analyzed by LC-MS/MS (Shimadzu LCMS 8060 system, Shimadzu, Kyoto, Japan). All microsomal incubations were conducted in triplicate. We used HLMs to determine the mechanisms and constants (Ki values) for […] A inhibition of CYP1A2, CYP2B6, CYP2C8, CYP2C9 and CYP3A. […] The substrates were used at concentrations approximately near to their respective Km values. […] The other conditions were the same as in the cytochrome P450 inhibition study. […] Phenomenex, Torrance, CA, USA) and analyzed using a Shimadzu LCMS 8060 triple-quadrupole mass spectrometer coupled with a Nexera X2 ultra high-performance liquid chromatography system (Shimadzu, Kyoto, Japan) equipped with an electrospray ionization interface. The mobile phase consisted of 0.1% formic acid in water (A) and 0.1% formic acid in acetonitrile (B). […] The flow rate was 0.2 mL/min. Electrospray ionization was performed in positive-ion mode at 4000 V or in negative-ion mode at -3500 V. […] Quantitation was conducted in selected reaction monitoring (SRM) modes with the precursor-to-product ion transition for each metabolite (Table 1 and Table 2). We analyzed the data with Shimadzu LabSolution LC-MS software. The IC50 values were calculated by WinNonlin software (Pharsight, Mountain View, CA, USA). The type of inhibition and the apparent kinetic parameters for inhibitory activity (Ki) were determined by following several criteria: visual inspection of Dixon plots, Lineweaver-Burk double reciprocal plots, and secondary plots of Lineweaver-Burk plots versus biflavonoid concentrations, the size of the sum of squares of the residuals, Akaike Information Criteria values, the S.E. and 95% confidence interval of the parameter estimates from the nonlinear regression analysis using the WinNonlin software. The models tested included competitive, competitive partial, noncompetitive, noncompetitive partial, uncompetitive, uncompetitive partial, and mixed-type inhibition.
For orientation: Liver microsomes are a subcellular fraction often used to study metabolism.

The target of the next data set is T1, CYP2E1 (Homo sapiens, UniProt P05181).
T1 construct: incubation mixtures containing pooled human liver microsomes (HLMs, XTreme 200, XenoTech); tissue XenoTech XTreme 200; host or cells: pooled human liver microsomes
T1 sequence (P05181 whole entry): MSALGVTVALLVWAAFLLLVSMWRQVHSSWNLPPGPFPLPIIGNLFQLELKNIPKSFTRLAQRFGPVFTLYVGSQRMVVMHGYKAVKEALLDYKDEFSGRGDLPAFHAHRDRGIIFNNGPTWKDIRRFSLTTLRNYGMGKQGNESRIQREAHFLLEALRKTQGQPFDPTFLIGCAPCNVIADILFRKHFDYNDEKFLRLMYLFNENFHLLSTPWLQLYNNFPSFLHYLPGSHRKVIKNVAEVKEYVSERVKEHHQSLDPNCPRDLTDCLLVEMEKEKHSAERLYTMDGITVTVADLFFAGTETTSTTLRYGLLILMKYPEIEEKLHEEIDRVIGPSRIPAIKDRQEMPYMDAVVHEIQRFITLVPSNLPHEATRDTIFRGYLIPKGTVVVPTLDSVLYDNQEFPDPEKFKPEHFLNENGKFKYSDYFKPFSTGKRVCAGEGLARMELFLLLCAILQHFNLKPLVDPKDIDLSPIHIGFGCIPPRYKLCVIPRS
The data set can be described thus: Inhibition of CYP2E1 (chlorzoxazone) activity in pooled human liver microsomes. The settings on record: substrate chlorzoxazone 50 µM; pooled HLMs; read-out: IC50, P450 2E1. The data set is classed as in vitro ADME. The procedure:
The inhibitory potential of the five biflavonoids on the metabolism of nine P450 probe substrates was evaluated using previously developed methods with minor modifications. Biflavonoids were dissolved in methanol. The final concentration of methanol in the incubation mixture was 1.0% (v/v). We used these P450 probe substrates: phenacetin for CYP1A2, coumarin for CYP2A6, bupropion for CYP2B6, amodiaquine for CYP2C8, diclofenac for CYP2C9, omeprazole for CYP2C19, dextromethorphan for CYP2D6, chlorzoxazone for CYP2E1 and midazolam for CYP3A (Table 1). The incubation mixtures containing pooled human liver microsomes (HLMs, XTreme 200, XenoTech), P450 probe substrates, and inhibitor (0~20 µM) were pre-incubated at 37 °C for 5 min. The concentration range of the inhibitor varied (0, 0.002, 0.005, 0.02, 0.05, and 0.2 µM for CYP2C8; 0, 0.02, 0.05, 0.2, 0.5, and 2 µM for CYP2C9; 0, 0.5, 2, 5, 10, and 20 µM for other P450 isoforms). After pre-incubation, a reduced nicotinamide adenine dinucleotide phosphate (NADPH) generation system containing 1 unit/ml G6PDH, 1.3 mM β- nicotinamide adenine dinucleotide phosphate (β- NADP^+), 3.3 mM MgCl2, and 3.3 mM G6P was added to initiate a reaction, and further incubated for 10 min at 37 °C. The reaction was stopped by adding 50 μL of ice-cold acetonitrile containing 7 nM trimipramine (internal standard, IS). After centrifugation at 18,000 g (5 min, 4 °C), aliquots of supernatants were analyzed by LC–MS/MS (Shimadzu LCMS 8060 system, Shimadzu, Kyoto, Japan). All microsomal incubations were conducted in triplicate.
All metabolites and the IS were separated on a Kinetex XB-C18 column (100 × 2.10 mm, 2.6 μm, 100 Å; Phenomenex, Torrance, CA, USA) and analyzed using a Shimadzu LCMS 8060 triple-quadrupole mass spectrometer coupled with a Nexera X2 ultra high-performance liquid chromatography system (Shimadzu, Kyoto, Japan) equipped with an electrospray ionization interface. The mobile phase consisted of 0.1% formic acid in water (A) and 0.1% formic acid in acetonitrile (B). The elution condition was set as 8% B (0–0.5 min), 8%→60% B (0.5–5 min), 60% B (5–6 min), 60%→8% B (6–6.1 min) and 8% B (6.1–9 min) for the analysis of metabolites of P450 probe substrates and set as 0%→40% B (0–1 min), 40%→50% B (1–5 min), 50%→0% B (5–5.1 min), and 0% B (5.1–8 min) for the analysis of metabolites of UGT probe substrates. The flow rate was 0.2 mL/min. Electrospray ionization was performed in positive-ion mode at 4000 V or in negative-ion mode at −3500 V. The optimum operating conditions were determined as follows: vaporizer temperature, 300 °C; capillary temperature, 350 °C; collision gas (argon) pressure, 1.5 mTorr. Quantitation was conducted in selected reaction monitoring (SRM) modes with the precursor-to-product ion transition for each metabolite (Table 1 and Table 2).
We analyzed the data with Shimadzu LabSolution LC–MS software. The IC50 values were calculated by WinNonlin software (Pharsight, Mountain View, CA, USA). The type of inhibition and the apparent kinetic parameters for inhibitory activity (Ki) were determined by following several criteria: visual inspection of Dixon plots, Lineweaver–Burk double reciprocal plots, and secondary plots of Lineweaver–Burk plots versus biflavonoid concentrations, the size of the sum of squares of the residuals, Akaike Information Criteria values, the S.E. and 95% confidence interval of the parameter estimates from the nonlinear regression analysis using the WinNonlin software. The models tested included competitive, competitive partial, noncompetitive, noncompetitive partial, uncompetitive, uncompetitive partial, and mixed-type inhibition.

Setting [1] is: substrate diclofenac 10 µM, pooled HLMs, read-out: IC50, P450 2C9.

Sequence of CYP2C9 (P11712 whole entry): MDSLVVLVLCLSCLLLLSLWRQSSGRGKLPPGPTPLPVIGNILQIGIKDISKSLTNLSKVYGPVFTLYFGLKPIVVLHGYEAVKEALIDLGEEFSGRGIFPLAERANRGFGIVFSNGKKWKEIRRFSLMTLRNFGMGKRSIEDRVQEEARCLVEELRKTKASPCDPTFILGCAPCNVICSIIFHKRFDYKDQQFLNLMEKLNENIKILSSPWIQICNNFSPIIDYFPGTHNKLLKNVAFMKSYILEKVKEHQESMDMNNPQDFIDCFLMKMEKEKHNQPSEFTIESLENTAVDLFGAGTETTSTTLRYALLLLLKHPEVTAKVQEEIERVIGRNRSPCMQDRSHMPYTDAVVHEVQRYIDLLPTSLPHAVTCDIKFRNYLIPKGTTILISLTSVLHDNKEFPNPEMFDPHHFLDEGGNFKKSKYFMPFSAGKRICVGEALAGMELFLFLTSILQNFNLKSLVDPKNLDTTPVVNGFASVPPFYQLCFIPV

`O=c1cc(-c2ccc(O)c(-c3c(-c4ccc(O)cc4)oc4cc(O)cc(O)c4c3=O)c2)oc2cc(O)cc(O)c12` [taiwaniaflavone]: the results for the IC50 on CYP2C9 (setting [1]) and on CYP2E1 were 0.2 µM and 6 µM, respectively.
For `O=C1CC(c2cc(-c3c(O)ccc4c(=O)cc(-c5ccc(O)cc5)oc34)c(O)cc2O)Oc2cc(O)cc(O)c21` (stereo not shown) [selamariscina A], the “Mode of Inhibition, CYP2C9 diclofenac” value on CYP2C9 (HLMs) is reported as “Competitive”. Moreover, on CYP2C9 (HLMs, average ± standard error, triplicate), the inhibitory constant (Ki) worked out at 0.032 ± 0.007 µM. In addition, the inhibition at 10 min, 0.5 µM at CYP2C9 (human, pooled human liver microsomes, probe diclofenac, inhibitor 0.5 μM, pooled HLMs) stood at 88.6%. Moreover, the IC50 at CYP2C9 (setting [1]) was 0.047 µM; on CYP2E1, > 20 µM.
Consider `O=c1cc(-c2ccc(O)cc2)oc2c(-c3c(O)cc(O)c4c(=O)cc(-c5ccc(O)cc5)oc34)c(O)cc(O)c12` [cupressuflavone], for which the IC50 on CYP2C9 (setting [1]) was found to be 0.21 µM; at CYP2E1, 2.3 µM.
Regarding `O=c1cc(-c2ccc(O)c(-c3c(O)cc4oc(-c5ccc(O)cc5)cc(=O)c4c3O)c2)oc2cc(O)cc(O)c12` [robustaflavone], the half-inhibitory concentration (IC50) on CYP2C9 (setting [1]) is 0.15 µM; on CYP2E1 it was 2.9 µM.
`O=c1cc(-c2ccc(O)c(-c3c(O)cc(O)c4c(=O)cc(-c5ccc(O)cc5)oc34)c2)oc2cc(O)cc(O)c12` [amentoflavone]: the IC50 came to 0.15 µM on CYP2C9 and 3.3 µM at CYP2E1.
Take `CC(C)(O)c1ccccc1CC[C@@H](SCC1(CC(=O)O)CC1)c1cccc(/C=C/c2ccc3ccc(Cl)cc3n2)c1` [montelukast, reference compound]: at CYP2C9 (human, pooled human liver microsomes, probe diclofenac, inhibitor 5 μM, pooled HLMs), the inhibition at 10 min, 5 µM is 31%. The figures for the IC50 at CYP2C9 (setting [1]) and on CYP2E1 were 9.73 µM and > 50 µM, respectively.

What is called IC50 is the concentration that inhibits the measured activity by half. Broadly, the Ki is a dissociation constant, usually derived from enzyme kinetics or from competition with a known ligand. As usually defined, the inhibition is the change of the read-out against control, counted positive when it falls.
